Measured values published in ChEMBL document CHEMBL3400015, “Tertiary amides of Salinomycin: A new group of antibacterial agents against Bacillus anthracis and methicillin-resistant Staphylococcus epidermidis” (Bioorg Med Chem Lett, 2015).
In brackets after ≈: the same amount, converted by molar mass.

What was measured:
[1] = system: Staphylococcus aureus; experiment: Bactericidal activity against Staphylococcus aureus ATCC 25923 after 24 hrs; assay type: functional; settings: ATCC 25923, 24 h, read-out: MBC99.9
[2] = system: Staphylococcus epidermidis; experiment: Antimicrobial activity against methicillin-resistant Staphylococcus epidermidis isolate 460/11 after 18 hrs by twofold serial broth dilution method; assay type: functional; settings: isolate 460/11, 18 h
[3] = system: Staphylococcus epidermidis; experiment: Antimicrobial activity against methicillin-resistant Staphylococcus epidermidis isolate 458/11 after 18 hrs by twofold serial broth dilution method; assay type: functional; settings: isolate 458/11, 18 h
[4] = system: Staphylococcus epidermidis; experiment: Antimicrobial activity against methicillin-resistant Staphylococcus epidermidis isolate 470/11 after 18 hrs by twofold serial broth dilution method; assay type: functional; settings: isolate 470/11, 18 h
[5] = system: Staphylococcus epidermidis; experiment: Antimicrobial activity against methicillin-resistant Staphylococcus epidermidis isolate 404/10 after 18 hrs by twofold serial broth dilution method; assay type: functional; settings: isolate 404/10, 18 h
[6] = system: Staphylococcus epidermidis; experiment: Bactericidal activity against methicillin-resistant Staphylococcus epidermidis isolate 424/10 after 24 hrs; assay type: functional; settings: isolate 424/10, 24 h, read-out: MBC99.9
[7] = system: Staphylococcus epidermidis; experiment: Bactericidal activity against methicillin-resistant Staphylococcus epidermidis isolate 404/10 after 24 hrs; assay type: functional; settings: isolate 404/10, 24 h, read-out: MBC99.9
[8] = system: Staphylococcus epidermidis; experiment: Bactericidal activity against methicillin-resistant Staphylococcus epidermidis isolate 409/10 after 24 hrs; assay type: functional; settings: isolate 409/10, 24 h, read-out: MBC99.9
[9] = system: Staphylococcus epidermidis; experiment: Bactericidal activity against methicillin-resistant Staphylococcus epidermidis isolate 460/11 after 24 hrs; assay type: functional; settings: isolate 460/11, 24 h, read-out: MBC99.9
[10] = system: Staphylococcus aureus; experiment: Antimicrobial activity against Staphylococcus aureus NCTC 4163 after 18 hrs by twofold serial broth dilution method; assay type: functional; settings: NCTC 4163, 18 h
[11] = system: Staphylococcus epidermidis; experiment: Bactericidal activity against methicillin-resistant Staphylococcus epidermidis isolate 459/11 after 24 hrs; assay type: functional; settings: isolate 459/11, 24 h, read-out: MBC99.9
[12] = system: Escherichia coli; experiment: Bactericidal activity against Escherichia coli NCTC 8196 after 24 hrs; assay type: functional; settings: NCTC 8196, 24 h, read-out: MBC99.9
[13] = system: Staphylococcus epidermidis; experiment: Bactericidal activity against methicillin-resistant Staphylococcus epidermidis isolate 461/11 after 24 hrs; assay type: functional; settings: isolate 461/11, 24 h, read-out: MBC99.9
[14] = system: Staphylococcus epidermidis; experiment: Antimicrobial activity against methicillin-resistant Staphylococcus epidermidis isolate 461/11 after 18 hrs by twofold serial broth dilution method; assay type: functional; settings: isolate 461/11, 18 h
[15] = system: Staphylococcus aureus; experiment: Bactericidal activity against Staphylococcus aureus […] after 24 hrs; assay type: functional; settings: read-out: MBC99.9
[16] = system: Staphylococcus epidermidis; experiment: Antimicrobial activity against methicillin-resistant Staphylococcus epidermidis isolate 459/11 after 18 hrs by twofold serial broth dilution method; assay type: functional; settings: isolate 459/11, 18 h
[17] = system: Staphylococcus epidermidis; experiment: Bactericidal activity against methicillin-resistant Staphylococcus epidermidis isolate 422/10 after 24 hrs; assay type: functional; settings: isolate 422/10, 24 h, read-out: MBC99.9
[18] = system: Staphylococcus epidermidis; experiment: Antimicrobial activity against Staphylococcus epidermidis ATCC 35984 after 18 hrs by twofold serial broth dilution method; assay type: functional; settings: ATCC 35984, 18 h
[19] = system: Staphylococcus aureus; experiment: Bactericidal activity against Staphylococcus aureus NCTC 4163 after 24 hrs; assay type: functional; settings: NCTC 4163, 24 h, read-out: MBC99.9
[20] = system: Staphylococcus epidermidis; experiment: Bactericidal activity against methicillin-resistant Staphylococcus epidermidis isolate 457/11 after 24 hrs; assay type: functional; settings: isolate 457/11, 24 h, read-out: MBC99.9
[21] = system: Pseudomonas aeruginosa; experiment: Bactericidal activity against Pseudomonas aeruginosa NCTC 6749 after 24 hrs; assay type: functional; settings: NCTC 6749, 24 h, read-out: MBC99.9
[22] = system: Escherichia coli; experiment: Bactericidal activity against Escherichia coli ATCC 10538 after 24 hrs; assay type: functional; settings: ATCC 10538, 24 h, read-out: MBC99.9
[23] = system: Staphylococcus epidermidis; experiment: Antimicrobial activity against Staphylococcus epidermidis ATCC 12228 after 18 hrs by twofold serial broth dilution method; assay type: functional; settings: ATCC 12228, 18 h
[24] = system: Staphylococcus epidermidis; experiment: Antimicrobial activity against methicillin-resistant Staphylococcus epidermidis isolate 403/10 after 18 hrs by twofold serial broth dilution method; assay type: functional; settings: isolate 403/10, 18 h
[25] = system: Staphylococcus epidermidis; experiment: Bactericidal activity against methicillin-resistant Staphylococcus epidermidis isolate 455/11 after 24 hrs; assay type: functional; settings: isolate 455/11, 24 h, read-out: MBC99.9
[26] = system: Staphylococcus epidermidis; experiment: Antimicrobial activity against methicillin-resistant Staphylococcus epidermidis isolate 407/10 after 18 hrs by twofold serial broth dilution method; assay type: functional; settings: isolate 407/10, 18 h
[27] = system: Staphylococcus epidermidis; experiment: Antimicrobial activity against methicillin-resistant Staphylococcus epidermidis isolate 469/11 after 18 hrs by twofold serial broth dilution method; assay type: functional; settings: isolate 469/11, 18 h
[28] = system: Escherichia coli; experiment: Bactericidal activity against Escherichia coli ATCC 25922 after 24 hrs; assay type: functional; settings: ATCC 25922, 24 h, read-out: MBC99.9
[29] = system: Staphylococcus epidermidis; experiment: Bactericidal activity against methicillin-resistant Staphylococcus epidermidis isolate 407/10 after 24 hrs; assay type: functional; settings: isolate 407/10, 24 h, read-out: MBC99.9
[30] = system: Staphylococcus epidermidis; experiment: Bactericidal activity against methicillin-resistant Staphylococcus epidermidis isolate 405/10 after 24 hrs; assay type: functional; settings: isolate 405/10, 24 h, read-out: MBC99.9
[31] = system: Staphylococcus epidermidis; experiment: Bactericidal activity against methicillin-resistant Staphylococcus epidermidis isolate 403/10 after 24 hrs; assay type: functional; settings: isolate 403/10, 24 h, read-out: MBC99.9
[32] = system: Staphylococcus epidermidis; experiment: Bactericidal activity against methicillin-resistant Staphylococcus epidermidis isolate 454/11 after 24 hrs; assay type: functional; settings: isolate 454/11, 24 h, read-out: MBC99.9
[33] = system: Pseudomonas aeruginosa; experiment: Bactericidal activity against Pseudomonas aeruginosa ATCC 27853 after 24 hrs; assay type: functional; settings: ATCC 27853, 24 h, read-out: MBC99.9
[34] = system: Staphylococcus epidermidis; experiment: Antimicrobial activity against methicillin-resistant Staphylococcus epidermidis isolate 409/10 after 18 hrs by twofold serial broth dilution method; assay type: functional; settings: isolate 409/10, 18 h
[35] = system: Staphylococcus epidermidis; experiment: Bactericidal activity against Staphylococcus epidermidis ATCC 12228 after 24 hrs; assay type: functional; settings: ATCC 12228, 24 h, read-out: MBC99.9
[36] = system: Bacillus subtilis; experiment: Genotoxicity in rec-positive Bacillus subtilis H17 at 2 ug/9 mm disc after 24 hrs by disc diffusion method; assay type: toxicity, organism-based
[37] = system: Staphylococcus aureus; experiment: Bactericidal activity against Staphylococcus aureus ATCC 6538 after 24 hrs; assay type: functional; settings: ATCC 6538, 24 h, read-out: MBC99.9
[38] = system: Pseudomonas aeruginosa; experiment: Antimicrobial activity against Pseudomonas aeruginosa ATCC 27853 after 18 hrs by twofold serial broth dilution method; assay type: functional; settings: ATCC 27853, 18 h
[39] = system: Escherichia coli; experiment: Antimicrobial activity against Escherichia coli ATCC 25922 after 18 hrs by twofold serial broth dilution method; assay type: functional; settings: ATCC 25922, 18 h
[40] = system: Escherichia coli; experiment: Antimicrobial activity against Escherichia coli ATCC 10538 after 18 hrs by twofold serial broth dilution method; assay type: functional; settings: ATCC 10538, 18 h
[41] = system: Bacillus subtilis; experiment: Genotoxicity in rec-negative Bacillus subtilis M45 at 2 ug/9 mm disc after 24 hrs by disc diffusion method; assay type: toxicity, organism-based
[42] = system: Bacillus anthracis; experiment: Antimicrobial activity against Bacillus anthracis 34F2 after 18 hrs by twofold serial broth dilution method; assay type: functional; settings: 34F2, 18 h
[43] = system: Pseudomonas aeruginosa; experiment: Antimicrobial activity against Pseudomonas aeruginosa ATCC 15442 after 18 hrs by twofold serial broth dilution method; assay type: functional; settings: ATCC 15442, 18 h

With `O=C(O)c1cn(C2CC2)c2cc(N3CCNCC3)c(F)cc2c1=O` [CIPROFLOXACIN] the MBC [1] was 2 mg/L (≈ 6.04 µM), the MIC [2] was 0.125 mg/L (≈ 0.377 µM) and the MIC [3] was 32 mg/L (≈ 96.6 µM). It also gave an MIC [4] of 0.125 mg/L (≈ 0.377 µM), an MIC [5] of 32 mg/L (≈ 96.6 µM) and an MBC [6] of 256 mg/L (≈ 773 µM). For the same molecule, the MBC [7] was > 256 mg/L, the MBC [8] was 64 mg/L (≈ 193 µM) and the MBC [9] was 0.5 mg/L (≈ 1.51 µM). For the same molecule, the MIC [10] was 0.25 mg/L (≈ 0.754 µM), the MBC [11] was > 256 mg/L and the MBC [12] was 0.0016 mg/L (≈ 0.00483 µM). For the same molecule, the MBC [13] was 1 mg/L (≈ 3.02 µM), the MIC [14] was 0.25 mg/L (≈ 0.754 µM) and the MBC [15] was 2 mg/L (≈ 6.04 µM). For the same molecule, the MIC [16] was 32 mg/L (≈ 96.6 µM), the MBC [17] was 64 mg/L (≈ 193 µM) and the MIC [18] was 0.125 mg/L (≈ 0.377 µM). The MBC [19] was 0.5 mg/L (≈ 1.51 µM), the MBC [20] was > 256 mg/L and the MBC [21] was 0.125 mg/L (≈ 0.377 µM). It also gave an MBC [22] of 0.0016 mg/L (≈ 0.00483 µM), an MIC [23] of 0.25 mg/L (≈ 0.754 µM) and an MIC [24] of 8 mg/L (≈ 24.1 µM). The MBC [25] was > 256 mg/L, the MIC [26] was 64 mg/L (≈ 193 µM) and the MIC [27] was 8 mg/L (≈ 24.1 µM). The MBC [28] was 0.0016 mg/L (≈ 0.00483 µM), the MBC [29] was > 256 mg/L and the MBC [30] was 128 mg/L (≈ 386 µM). For the same molecule, the MBC [31] was 128 mg/L (≈ 386 µM), the MBC [32] was 0.25 mg/L (≈ 0.754 µM) and the MBC [33] was 0.25 mg/L (≈ 0.754 µM). For the same molecule, the MIC [34] was 2 mg/L (≈ 6.04 µM) and the MBC [35] was 1 mg/L (≈ 3.02 µM).

In the case of `CCCN(CCC)C(=O)[C@H](CC)[C@H]1CC[C@H](C)[C@H]([C@@H](C)[C@H](O)[C@H](C)C(=O)[C@H](CC)[C@H]2O[C@]3(C=C[C@@H](O)[C@]4(CC[C@@](C)([C@H]5CC[C@](O)(CC)[C@H](C)O5)O4)O3)[C@H](C)C[C@@H]2C)O1`, the MBC [1] is reported as > 256 mg/L, the MIC [2] is reported as 8 mg/L (≈ 9.59 µM) and the MIC [3] is reported as 8 mg/L (≈ 9.59 µM). It also gave an MIC [4] of 8 mg/L (≈ 9.59 µM), an MIC [5] of 4 mg/L (≈ 4.8 µM) and an MBC [6] of 256 mg/L (≈ 307 µM). For the same molecule, the MBC [7] was 128 mg/L (≈ 153 µM), the MBC [8] was 128 mg/L (≈ 153 µM) and the MBC [9] was 256 mg/L (≈ 307 µM). For the same molecule, the MIC [10] was 2 mg/L (≈ 2.4 µM), the MBC [11] was 128 mg/L (≈ 153 µM) and the MBC [12] was > 256 mg/L. The “diameter of the inhibition zone (DIZ)” value [36] was 28 mm, the MBC [13] was 128 mg/L (≈ 153 µM) and the MIC [14] was 4 mg/L (≈ 4.8 µM). For the same molecule, the MBC [15] was 256 mg/L (≈ 307 µM), the MIC [16] was 4 mg/L (≈ 4.8 µM) and the MBC [37] was 256 mg/L (≈ 307 µM). The MIC [38] was > 256 mg/L, the MBC [17] was 128 mg/L (≈ 153 µM) and the MIC [39] was > 256 mg/L. For the same molecule, the MIC [18] was 2 mg/L (≈ 2.4 µM), the MBC [19] was > 256 mg/L and the MBC [20] was 256 mg/L (≈ 307 µM). For the same molecule, the MBC [21] was > 256 mg/L, the MBC [22] was > 256 mg/L and the MIC [23] was 2 mg/L (≈ 2.4 µM). For the same molecule, the MIC [24] was 4 mg/L (≈ 4.8 µM), the MBC [25] was 256 mg/L (≈ 307 µM) and the MIC [40] was > 256 mg/L. The MIC [26] was 4 mg/L (≈ 4.8 µM), the MIC [27] was 4 mg/L (≈ 4.8 µM) and the “diameter of the inhibition zone (DIZ)” value [41] was 26 mm. For the same molecule, the MBC [28] was > 256 mg/L, the MBC [29] was 256 mg/L (≈ 307 µM) and the MBC [30] was 128 mg/L (≈ 153 µM). The MBC [31] was 128 mg/L (≈ 153 µM), the MBC [32] was 128 mg/L (≈ 153 µM) and the MBC [33] was > 256 mg/L. The MIC [42] was 4 mg/L (≈ 4.8 µM), the MIC [43] was > 256 mg/L and the MIC [34] was 8 mg/L (≈ 9.59 µM). It also gave an MBC [35] of 256 mg/L (≈ 307 µM).
